In ChEMBL document CHEMBL1201862, “PubChem BioAssay data set” (2004):
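Dose response: 5 concentrations. Exposure: 48 h. Format: 96-well plates. Endpoint: linear interpolation; highest concentration if not reached. Abbreviation: GI50, concentration required for 50% inhibition of growth.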 Activity calls are given as the source filed them. Cut-off read from the data, not from the text of the source: active = GI50 up to about 1.1 µM and inactive = higher.

Columns and labels:
Experiment in all cases: NCI-60 cell line screen, 48 h
786-0 = system: 786-0
ACHN = system: ACHN
HCT-116 = system: HCT-116
HCT-15 = system: HCT-15
IGROV-1 = system: IGROV-1
KM12 = system: KM12
M14 = system: M14
Malme-3M = system: Malme-3M
NCI-H23 = system: NCI-H23
NCI/ADR-RES = system: NCI/ADR-RES
OVCAR-8 = system: OVCAR-8
SF-268 = system: SF-268
SF-295 = system: SF-295
SNB-75 = system: SNB-75
SR = system: SR
TK-10 = system: TK-10
UACC-62 = system: UACC-62
NCI-H460 = system: NCI-H460
T47D = system: T47D
BT-549 = system: BT-549

Row | SMILES | GI50 (786-0) | GI50 (ACHN) | GI50 (HCT-116) | GI50 (HCT-15) | GI50 (IGROV-1) | GI50 (KM12) | GI50 (M14) | GI50 (Malme-3M) | GI50 (NCI-H23) | GI50 (NCI/ADR-RES) | GI50 (OVCAR-8) | GI50 (SF-268) | GI50 (SF-295) | GI50 (SNB-75) | GI50 (SR) | GI50 (TK-10) | GI50 (UACC-62) | GI50 (NCI-H460) | GI50 (T47D) | GI50 (BT-549)
1 | COc1ccc(/C=C2\NC(=S)N(CN3CCOCC3)C2=O)cc1 | > 100 µM (inactive) | > 100 µM (inactive) | > 100 µM (inactive) | > 100 µM | > 100 µM (inactive) | > 100 µM (inactive) | > 100 µM (inactive) | > 100 µM (inactive) | > 100 µM (inactive) | > 100 µM (inactive) | > 100 µM (inactive) | > 100 µM (inactive) | > 100 µM (inactive) | > 100 µM (inactive) | > 100 µM (inactive) | > 100 µM (inactive) | > 100 µM (inactive) | – | – | –
2 | Cc1c2oc3c(C)cc(F)c(C(=O)NC4C(=O)NC(C(C)C)C(=O)N5CCCC5C(=O)N(C)CC(=O)N(C)C(C(C)C)C(=O)OC4C)c3nc-2c(C(=O)NC2C(=O)NC(C(C)C)C(=O)N3CCCC3C(=O)N(C)CC(=O)N(C)C(C(C)C)C(=O)OC2C)c(N)c1=O (configuration not stated) | 0.00512 µM (active) | 0.0832 µM (active) | 0.01 µM (active) | 0.0805 µM | 0.00618 µM (active) | 0.00475 µM (active) | 0.0826 µM (active) | 0.00149 µM (active) | 0.105 µM (active) | 4.65 µM (inactive) | 0.221 µM (active) | < 0.001 µM (active) | 0.00708 µM (active) | 0.163 µM (active) | < 0.001 µM (active) | 0.224 µM (active) | 0.0617 µM (active) | 0.00179 µM (active) | 0.101 µM (active) | –
3 | C/C=C(/C)C(=O)O[C@H]1C[C@@H]2[C@@H](O)c3occ(C)c3C[C@]2(C)[C@@H](C)C1 | 16.1 µM (inactive) | 17.1 µM (inactive) | 15.2 µM (inactive) | 18.7 µM | 16.7 µM (inactive) | 16.3 µM (inactive) | 15.6 µM (inactive) | 15.8 µM (inactive) | 17.8 µM (inactive) | 14.2 µM (inactive) | 19.2 µM (inactive) | 16 µM (inactive) | 15.2 µM (inactive) | – | 14.2 µM (inactive) | 17.6 µM (inactive) | 13.4 µM (inactive) | 22.4 µM (inactive) | 11.6 µM (inactive) | –
4 | CC(C)CC(NC(=O)C(CI)Cc1ccccc1)C(=O)Nc1ccccc1 (configuration not stated) | > 100 µM (inactive) | > 100 µM (inactive) | > 100 µM (inactive) | > 100 µM | > 100 µM (inactive) | > 100 µM (inactive) | > 100 µM (inactive) | > 100 µM (inactive) | > 100 µM (inactive) | > 100 µM (inactive) | > 100 µM (inactive) | – | > 100 µM (inactive) | > 100 µM (inactive) | 68.9 µM (inactive) | > 100 µM (inactive) | > 100 µM (inactive) | > 100 µM (inactive) | – | 7.76 µM (inactive)
